Measurements published in PMC11122949, “Metabolic Blockade-Based Genome Mining of Sea Anemone-Associated Streptomyces sp. S1502 Identifies Atypical Angucyclines WS-5995 A–E: Isolation, Identification, Biosynthetic Investigation, and Bioactivities” (Marine Drugs, 2024).

Experiments:
MCF-7 = assay: MTT cytotoxicity assay, MCF-7; type: cell-based, human
Experimental: (§1) Compounds 1–5 were tested for their cytotoxic activities against different normal and tumor human cell lines, the MTT assay was used to assess cytotoxicity as described previously. Briefly, different tumor cells and normal cells were seeded onto 96-well plates at the appropriate density and allowed to attach overnight. Drugs at various concentrations were added to the culture medium and cells were cultured for another 68 h at 37 °C. MTT (5 mg/mL, 20 μL/well) was then added to the wells for additional 4 h, and the medium was discarded before 150 μL of DMSO was added to dissolve the MTT-formazan crystals. Absorbance was measured at 540 nm, with background subtraction at 670 nm using Model 550 Microplate Reader (Bio-Rad, Hercules, CA, USA). The Bliss method was used to calculate the half maximal (50%) inhibitory concentration (IC50) values. Data represent the mean ± SD of at least three independent experiments.

A549 = assay: MTT cytotoxicity assay, A549; type: cell-based, human; conditions: A549, 72 h
Experimental: as §1

RBE = assay: MTT cytotoxicity assay, RBE; type: cell-based, human; conditions: 72 h
Experimental: as §1

BT-549 = assay: MTT cytotoxicity assay, BT-549; type: cell-based, human; conditions: BT-549, 72 h
Experimental: as §1

Huvec = assay: MTT cytotoxicity assay, Huvec (normal cells); type: cell-based; conditions: 72 h, Huvec normal human cell line
Experimental: as §1

NCM-460 = assay: MTT cytotoxicity assay, NCM-460 (normal cells); type: cell-based; conditions: 72 h
Experimental: as §1

[1] = system: MCF-7, BT-549, RBE and A549; NCM-46 and Huvec; assay: MTT cytotoxicity, whole panel of cell lines; type: cell-based; conditions: four human cancer and two normal human cell lines
Experimental: as §1

Eimeria tenella = assay: In vitro anticoccidial activity (qPCR); type: cell-based; conditions: 48 h
Experimental: The number of Eimeria tenella spores and the cells were seeded in a 24-well plate at a ratio of 1:1 and incubated for 6 h, and the medium was discarded and washed with PBS three times. Then, 500 μL of medium was added to each well, followed by the addition of the medium containing the compounds, the blank control group (no spores and no compounds) and positive control group (with spores but no compound) were set, and 10 μM of sulfaclozinium chloride sodium served as a control drug, and three replicates were set up. The culture remained in an incubator containing 5% CO2 at 38 °C for 48 h. After 48 h, the medium was discarded and washed with PBS three times, and the total RNA of each well was extracted and reverse-transcribed into cDNA. qPCR was used to detect the effects of the compounds on the growth and development of E. tenella.

[2] = system: Eimeria tenella infections; parameters: method as in PMID 7451360; conditions: animal experiments; cited from earlier work
fungi = system: fungi; parameters: method as in PMID 19798499; conditions: cited from earlier work
[3] = Homo sapiens, MCF7, MCF-7, 72 h
[4] = NCM460, NCM-460 normal human cell line

## COc1cccc2c1C(=O)c1c(O)c3c(c(O)c1C2=O)C[C@@](O)(C(=O)CO)C[C@@H]3O[C@H]1C[C@H](N)[C@H](O)[C@H](C)O1 [Adriamycin, reference compound]
MCF-7; [3]
  IC50: 2.96 µM
A549; Homo sapiens
  IC50: 4.62 µM
RBE; Homo sapiens
  IC50: 3.62 µM
BT-549; Homo sapiens
  IC50: 6.42 µM
Huvec; Homo sapiens, HUVEC
  IC50: 3.87 µM
NCM-460; [4]
  IC50: 3.24 µM

## N.N.[Cl][Pt][Cl] [Cisplatin, reference compound]
MCF-7; MCF-7, 72 h
  IC50: 4.49 µM
A549
  IC50: 9.34 µM
RBE
  IC50: 4.26 µM
BT-549
  IC50: 14.2 µM
Huvec
  IC50: 5.26 µM
NCM-460; NCM-460 normal human cell line
  IC50: 19 µM

## CCOC(=O)c1cc(C)cc(OC)c1C1=C(O)C(=O)c2c(O)cccc2C1=O [Compound 1, WS-5995 E]
MCF-7; [3]
  IC50: > 50 µM
A549; Homo sapiens
  IC50: > 50 µM
[1]
  cytotoxic effects against the tested cell lines: did not exhibit cytotoxic effects
RBE; Homo sapiens
  IC50: > 50 µM
BT-549; Homo sapiens
  IC50: > 50 µM
Eimeria tenella
  in vitro anti-E. tenella bioactivity: only exhibited activity at high concentrations
Huvec; Homo sapiens, HUVEC
  IC50: > 50 µM
NCM-460; [4]
  IC50: > 50 µM

## COc1cc(C)cc2c(=O)oc3c(c12)C(=O)c1cccc(O)c1C3=O [Compound 2, WS-5995A]
MCF-7; [3]
  IC50: > 50 µM
A549; Homo sapiens
  IC50: > 50 µM
RBE; Homo sapiens
  IC50: 21.4 µM
[2]
  protective activity against Eimeria tenella infections: excellent protective activity
BT-549; Homo sapiens
  IC50: > 50 µM
Eimeria tenella
  in vitro anti-E. tenella bioactivity: significant anticoccidial activity
Eimeria tenella; Eimeria tenella, read-out: anti-E. tenella activity IC50
  IC50: 2.21 µM
Huvec; Homo sapiens, HUVEC
  IC50: 31.2 µM
NCM-460; [4]
  IC50: 40.8 µM

## COc1cc(C)cc(C(=O)O)c1C1=CC(=O)c2c(O)cccc2C1=O [Compound 3, WS-5995B]
MCF-7; [3]
  IC50: 19.6 µM
A549; Homo sapiens
  IC50: > 50 µM
fungi
  antifungal activity: antifungal activity
RBE; Homo sapiens
  IC50: 16.8 µM
[2]
  protective activity against Eimeria tenella infections: excellent protective activity
BT-549; Homo sapiens
  IC50: 5.97 µM
Huvec; Homo sapiens, HUVEC
  IC50: 7.67 µM
NCM-460; [4]
  IC50: 18.5 µM

## COc1cc(C)cc(C(=O)O)c1C1=C(O)C(=O)c2c(O)cccc2C1=O [Compound 4, WS-5995C]
MCF-7; [3]
  IC50: > 50 µM
A549; Homo sapiens
  IC50: > 50 µM
[1]
  cytotoxic effects against the tested cell lines: did not exhibit cytotoxic effects
RBE; Homo sapiens
  IC50: > 50 µM
BT-549; Homo sapiens
  IC50: > 50 µM
Eimeria tenella
  in vitro anti-E. tenella bioactivity: not active
Huvec; Homo sapiens, HUVEC
  IC50: > 50 µM
NCM-460; [4]
  IC50: > 50 µM

## COC(=O)c1cc(C)cc(OC)c1C1=C(O)C(=O)c2c(O)cccc2C1=O [Compound 5, WS-5995D]
MCF-7; [3]
  IC50: > 50 µM
A549; Homo sapiens
  IC50: > 50 µM
[1]
  cytotoxic effects against the tested cell lines: did not exhibit cytotoxic effects
RBE; Homo sapiens
  IC50: > 50 µM
BT-549; Homo sapiens
  IC50: > 50 µM
Eimeria tenella
  in vitro anti-E. tenella bioactivity: only exhibited activity at high concentrations
Huvec; Homo sapiens, HUVEC
  IC50: > 50 µM
NCM-460; [4]
  IC50: > 50 µM
